Data published in US20140088052A1, “CHALCONE DERIVATIVES AS NRF2 ACTIVATORS” (THE JOHNS HOPKINS UNIVERSITY, priority 2011, published 2014).

Legend:
[1] = test system: Nrf2; assay: In vivo potency to activate Nrf2: GCLM and NQO1 expression in mouse small intestine; parameters: species or system mice (C57BL/6); details: mice, single dose 50 mg/kg by gavage, 24 h
Procedure: Mice (n=4) were fed with vehicle (DCP-10% DMSO+10% Cremophor+80% phosphate buffered saline) or chalcone derivatives or sulforaphane (50 mg/kg body weight) by gavage, and the small intestines were harvested 24 hours later. The expression of Nrf2-regulated genes GCLM and NQO1 was analyzed in the tissues by qRT-PCR as a surrogate marker of Nrf2 activity. β-actin was used for normalization. Data are representative of three independent experiments. Values shown are mean±SD of triplicate wells (P≦0.05);
The potency of the 8 lead chalcones identified in the in vitro screening to activate Nrf2 pathway were evaluated in mouse models. First, various formulations to dissolve the compounds were evaluated, and the DCP (10% DMSO+10% Cremophor EL+80% phosphate buffered saline) formulation offered the maximum solubility for delivery of these compounds by oral route. Mice (C57BL/6) were administrated with a single dose of vehicle or test compound(s) or sulforaphane as the positive control at a dose of 50 mg/kg body weight by gavage and small intestines were harvested 24 h later. The expression of Nrf2-regulated genes GCLM and NQO1 was analyzed in the tissue by qRT-PCR. All the eight compounds tested increased the expression of GCLM and NQO1 in small intestine. […] The expression of GCLM and NQO1 in the small intestine of mice treated with 2b was 6-fold and 10-fold higher compared to vehicle, respectively. Similarly, the expression of GCLM and NQO1 in the small intestine treated with 2b was 3-fold and 5-fold higher compared to sulforaphane, respectively.
All experiments in mice were performed in accordance with the standards established by the U.S. Animal Welfare Acts, set forth in NIH guidelines and the Policy and Procedures Manual of the Johns Hopkins University Animal Care and Use Committee. C57BL/6 mice (male, 7 weeks) were maintained on AIN 76A diet (Harlan Tekland, Madison, Wis.) and water ad libitum and housed at a temperature (range, 20-23° C.) under 12 h light/dark cycles. The mice were treated with chalcone analogs (50 mg/kg body weight) or vehicle or sulforaphane as a positive control by gavage. After 24 h treatment, the small intestines were harvested and stored at −80° C. until analysis.
Total RNA was extracted from cells/tissue using Qiagen RNeasy kit (Qiagen Corporation, Valencia, Calif.) and reverse transcription was performed by using random hexamers and MultiScribe reverse transcriptase according to the manufacturer's recommendations (Applied Biosystems, Foster City, Calif., USA). Quantitative real-time RT-PCR analyses of Nrf2, NQO1, HO1, and GCLM were performed by using Assay-on-Demand primers and probe sets from Applied Biosystems. Assays were performed using the ABI 7000 Taqman system (Applied Biosystems, Foster City, Calif.). β-actin was used for normalization.

[2] = test system: Nrf2; assay: Pharmacodynamic markers of Nrf2 activity (NQO1, HO-1, GCLM) in irradiated mice; assay type: in vivo; details: irradiated (6.9Gy) mice, day 12, compared to vehicle
Procedure: NQO1, HO-1 and GCLM levels were analyzed in bone marrow (FIG. 12A), lung (FIG. 12B) and small intestine (FIG. 12C) harvested at day 12 from irradiated (6.9Gy) mice treated with vehicle or drug.

[3] = test system: mice subjected to total body irradiation (TBI); assay: Hematopoietic recovery after total body irradiation; assay type: in vivo
Procedure: At indicated time periods, a cohort of mice was sacrificed. Peripheral blood was collected by heart puncture at the indicated days and differential blood cell count was analyzed using Hemavet 950FS(P<0.05, n=3 per group). Femur bones were fixed, decalcified sectioned along the sagittal plan and stained with hematoxylin and eosin for analyzing marrow cellularity.

COc1ccccc1C(=O)/C=C/c1ccccc1C(F)(F)F [Compound 2b, (E)-1-(2-methoxyphenyl)-3-(2-(trifluoromethyl)phenyl)prop-2-en-1-one]
expression of GCLM in the small intestine, compared to sulforaphane [1]: 3 fold | expression of GCLM in the small intestine, compared to vehicle [1]: 6 fold | expression of NQO1 in the small intestine, compared to sulforaphane [1]: 5 fold | expression of NQO1 in the small intestine, compared to vehicle [1]: 10 fold | expression of GCLM and NQO1 in small intestine (Nrf2 activity) ([1]; in words): most potent inducer of Nrf2 activity | Nrf2 regulated antioxidants (NQO1, HO-1, GCLM) in BM-MNC, gut and lung [2]: significantly elevated | bone marrow cellularity (H&E staining) ([3]; 6.9 Gy TBI, day 7 and day 20, compared to vehicle): greater marrow cellularity | WBC, RBC and platelets on day 22 post-irradiation ([3]; 6.9 Gy TBI, oral treatment from 24 h after): significant increase in WBC, red blood cells (RBC) and platelets | white blood cells, neutrophils and lymphocytes post-irradiation ([3]; 6.9 Gy TBI, oral treatment from 24 h after, compared to vehicle): early increase in white blood cells (WBC), neutrophils and lymphocytes | hematopoietic reconstitution (CBC analysis, WBC) ([3]; 7.3 Gy TBI, treatment 24 hours after, 30 days): significant recovery of WBC
